Test results published in PubChem BioAssay AID1259407 (Chemical Carcinogenesis Research Information System (CCRIS), 2018).
Active and inactive are the calls of the source. No rule for the calls is given here.

Test system: CCRIS mutagenicity, Ames/micronucleus/aberration tests
Assay: CCRIS mutagenicity studies

O=C1OC(O)C(C(Cl)Cl)=C1Cl (centres undefined)
mutagenic call (Test System: AMES SALMONELLA TYPHIMURIUM, Strain/Indicator: RSJ100, Metabolic Activation: NONE, Method: PREINCUBATION): inactive; negative
mutagenic call (Test System: AMES SALMONELLA TYPHIMURIUM, Strain/Indicator: RSJ100, Metabolic Activation: RAT LIVER S-9, Method: PREINCUBATION): inactive; negative
mutagenic call (Test System: AMES SALMONELLA TYPHIMURIUM, Strain/Indicator: TA92, Metabolic Activation: NONE, Method: STANDARD PLATE): active; positive
mutagenic call (Test System: AMES SALMONELLA TYPHIMURIUM, Strain/Indicator: TA97, Metabolic Activation: NONE, Method: STANDARD PLATE): active; positive
mutagenic call (Test System: AMES SALMONELLA TYPHIMURIUM, Strain/Indicator: TA98, Metabolic Activation: NONE, Method: PREINCUBATION): active; positive
mutagenic call (Test System: AMES SALMONELLA TYPHIMURIUM, Strain/Indicator: TA98, Metabolic Activation: NONE, Method: STANDARD PLATE): active; positive
mutagenic call (Test System: AMES SALMONELLA TYPHIMURIUM, Strain/Indicator: TA98, Metabolic Activation: RAT LIVER S-9, AROCLOR 1254, Method: STANDARD PLATE): inactive; negative
mutagenic call (Test System: AMES SALMONELLA TYPHIMURIUM, Strain/Indicator: TA98, Metabolic Activation: RAT LIVER S-9, Method: PREINCUBATION): active; positive
mutagenic call (Test System: AMES SALMONELLA TYPHIMURIUM, Strain/Indicator: TA98, Metabolic Activation: RAT, LIVER, S-9, PHENOBARBITAL AND 5,6-BENZOFLAVONE, Method: PREINCUBATION): inactive; negative
mutagenic call (Test System: AMES SALMONELLA TYPHIMURIUM, Strain/Indicator: TA100, Metabolic Activation: NONE, Method: PREINCUBATION): active; positive
mutagenic call (Test System: AMES SALMONELLA TYPHIMURIUM, Strain/Indicator: TA100, Metabolic Activation: RAT LIVER S-9, AROCLOR 1254, Method: STANDARD PLATE): inactive; negative
mutagenic call (Test System: AMES SALMONELLA TYPHIMURIUM, Strain/Indicator: TA100, Metabolic Activation: RAT LIVER S-9, Method: PREINCUBATION): inactive; negative
mutagenic call (Test System: AMES SALMONELLA TYPHIMURIUM, Strain/Indicator: TA100, Metabolic Activation: RAT, LIVER, S-9, AROCLOR 1254, Method: STANDARD PLATE): active; positive
mutagenic call (Test System: AMES SALMONELLA TYPHIMURIUM, Strain/Indicator: TA100, Metabolic Activation: RAT, LIVER, S-9, PHENOBARBITAL AND 5,6-BENZOFLAVONE, Method: PREINCUBATION): inactive; negative
mutagenic call (Test System: AMES SALMONELLA TYPHIMURIUM, Strain/Indicator: TA102, Metabolic Activation: NONE, Method: STANDARD PLATE): active; positive
mutagenic call (Test System: AMES SALMONELLA TYPHIMURIUM, Strain/Indicator: TA1535, Metabolic Activation: NONE, Method: STANDARD PLATE): active; positive
mutagenic call (Test System: AMES SALMONELLA TYPHIMURIUM, Strain/Indicator: TA1538, Metabolic Activation: NONE, Method: STANDARD PLATE): active; positive
mutagenic call (Test System: AMES SALMONELLA TYPHIMURIUM, Strain/Indicator: YG7112, Metabolic Activation: NONE, Method: PREINCUBATION): active; positive
mutagenic call (Test System: AMES SALMONELLA TYPHIMURIUM, Strain/Indicator: YG7113, Metabolic Activation: NONE, Method: PREINCUBATION): active; positive
mutagenic call (Test System: AMES SALMONELLA TYPHIMURIUM, Strain/Indicator: YG7119, Metabolic Activation: NONE, Method: PREINCUBATION): active; positive
mutagenic call (Test System: Ames Salmonella typhimurium, Strain/Indicator: TA100, Metabolic Activation: None, Method: Preincubation): active; positive
mutagenic call (Test System: Ames Salmonella typhimurium, Strain/Indicator: TA104, Metabolic Activation: None, Method: Plate incorporation): active; positive
mutagenic call (Test System: Ames Salmonella typhimurium, Strain/Indicator: TA1975P, Metabolic Activation: None, Method: Preincubation): active; positive (at higher doses)
mutagenic call (Test System: CHINESE HAMSTER OVARY, Strain/Indicator: CHO-KTL3 (HPRT)/6-THIOGUANINE, Metabolic Activation: NONE): active; positive
mutagenic call (Test System: CHINESE HAMSTER V-79, Strain/Indicator: V-79 (HGPRT), Metabolic Activation: NONE): inactive; negative
mutagenic call (Test System: E. COLI, Strain/Indicator: CL101P, Metabolic Activation: NONE, Method: PREINCUBATION): active; positive
mutagenic call (Test System: E. COLI, Strain/Indicator: CL102P, Metabolic Activation: NONE, Method: PREINCUBATION): active; positive
mutagenic call (Test System: E. COLI, Strain/Indicator: CL103P, Metabolic Activation: NONE, Method: PREINCUBATION): active; positive
mutagenic call (Test System: E. COLI, Strain/Indicator: CL104P, Metabolic Activation: NONE, Method: PREINCUBATION): active; positive
mutagenic call (Test System: E. COLI, Strain/Indicator: CL105P, Metabolic Activation: NONE, Method: PREINCUBATION): active; positive
mutagenic call (Test System: E. COLI, Strain/Indicator: CL106P, Metabolic Activation: NONE, Method: PREINCUBATION): inactive; negative
mutagenic call (Test System: E. COLI, Strain/Indicator: WP2, Metabolic Activation: NONE, Method: PREINCUBATION): inactive; negative
mutagenic call (Test System: E. COLI, Strain/Indicator: WP2 UVRA, Metabolic Activation: NONE, Method: PREINCUBATION): active; positive
mutagenic call (Test System: E. coli, Strain/Indicator: XL-1 Blue MRA P2 (Spi), Method: Standard plate): inactive; negative
mutagenic call (Test System: E. coli, Strain/Indicator: YG6020 (Gpt)/6-Thioguanine, Method: Standard plate): inactive; negative
mutagenic call (Test System: HUMAN H1A1V2 CELLS, Strain/Indicator: TK LOCUS, Metabolic Activation: NONE, Method: SUSPENSION/PLATE): active; positive
mutagenic call (Test System: HUMAN LYMPHOBLASTOID CELLS, Strain/Indicator: AHH-1 CELLS (TK+/TK-), Metabolic Activation: NONE, Method: SUSPENSION/PLATE): active; positive
mutagenic call (Test System: HUMAN LYMPHOBLASTOID CELLS, Strain/Indicator: MCL-5 CELLS (TK+/TK-), Metabolic Activation: NONE, Method: SUSPENSION/PLATE): active; positive
mutagenic call (Test System: MOUSE LYMPHOMA, Strain/Indicator: L5178Y (TK+/TK-), Metabolic Activation: NONE, Method: SUSPENSION/PLATE): active; positive
mutagenic call (Test System: UDS HUMAN HEPATOCYTES, Strain/Indicator: THY INCORP, Metabolic Activation: NONE, Method: AUTORADIOGRAPHY): active; positive
mutagenic call (Test System: UDS MOUSE HEPATOCYTES, Strain/Indicator: THY INCORP, Metabolic Activation: IN VIVO, Method: AUTORADIOGRAPHY): inactive; negative
mutagenic call (Test System: UDS MOUSE HEPATOCYTES, Strain/Indicator: THY INCORP, Metabolic Activation: NONE, Method: AUTORADIOGRAPHY): active; positive
mutagenic call (Test System: UDS RAT HEPATOCYTES, Strain/Indicator: THY INCORP, Metabolic Activation: NONE, Method: AUTORADIOGRAPHY): active; positive
mutagenic call (Test System: UDS RAT HEPATOCYTES, Strain/Indicator: THYMIDINE INCORPORATION, Metabolic Activation: NONE, Method: AUTORADIOGRAPHY): active; positive
